Assay results as given in ChEMBL document CHEMBL1142055, “Quinolinium salt as a potent inhibitor of lymphocyte apoptosis” (Bioorg Med Chem Lett, 2005).

Species on record: Mus musculus
Test: Effective concentration by cytoprotection activity on glucocorticoid-induced apoptosis in murine thymocytes was determined in vitro
Format: functional

Structure (SMILES)	EC50
CO/N=C(/C[n+]1ccccc1)c1ccc(C)cc1	5.1 µM
Cc1ccc(C(=O)Cn2c3c(sc2=N)CCCC3)cc1	4.4 µM
CO/N=C(/C[n+]1ccccc1)c1ccc(N2CCCC2)cc1	0.28 µM
Cc1ccc(-c2cn3c4c(sc3n2)CCCC4)cc1	2.5 µM
CO/N=C(/C[n+]1cccc2ccccc21)c1ccc(N2CCCC2)cc1	0.013 µM
Cc1ccc(C(=O)C[n+]2ccccc2)cc1	> 10 µM
CO/N=C(/C[n+]1cccc2ccccc21)c1ccc(C)cc1	0.35 µM

Continued, values first:

EC50	Structure (SMILES)
> 10 µM	Cc1ccc(C(=O)Cn2c(=O)ccc3ccccc32)cc1
> 10 µM	Cc1ccc(C(=O)C[n+]2cccc3ccccc32)cc1
> 10 µM	CO/N=C(/Cn1c(=O)ccc2ccccc21)c1ccc(N2CCCC2)cc1
> 10 µM	CO/N=C(/Cn1c(=O)ccc2ccccc21)c1ccc(C)cc1
